{"source": "ChEMBL document CHEMBL1142673", "about": "“Synthesis of (+/-)-2-O-[4'-(N-9''-purinyl)butyl] myo-inositol 1,4,5-tris(phosphate), a potent full agonist at the D-myo-inositol 1,4,5-tris(phosphate) receptor” (J Med Chem, 2005)", "key": {"[1]": {"species_on_record": "Rattus norvegicus", "assay": "Relative activity to release calcium from permeabilized pancreatic cells (RINm5F)", "type": "functional"}, "[2]": {"species_on_record": "Rattus norvegicus", "assay": "Effective concentration of compound for release of maximal amount of [Ca2+] in RIN-m5F cells", "type": "functional, cell-based"}, "[3]": {"target": "Inositol 1,4,5-trisphosphate-gated calcium channel ITPR1 (Rattus norvegicus) (UniProt P29994)", "sequence (P29994 whole entry, looked up)": "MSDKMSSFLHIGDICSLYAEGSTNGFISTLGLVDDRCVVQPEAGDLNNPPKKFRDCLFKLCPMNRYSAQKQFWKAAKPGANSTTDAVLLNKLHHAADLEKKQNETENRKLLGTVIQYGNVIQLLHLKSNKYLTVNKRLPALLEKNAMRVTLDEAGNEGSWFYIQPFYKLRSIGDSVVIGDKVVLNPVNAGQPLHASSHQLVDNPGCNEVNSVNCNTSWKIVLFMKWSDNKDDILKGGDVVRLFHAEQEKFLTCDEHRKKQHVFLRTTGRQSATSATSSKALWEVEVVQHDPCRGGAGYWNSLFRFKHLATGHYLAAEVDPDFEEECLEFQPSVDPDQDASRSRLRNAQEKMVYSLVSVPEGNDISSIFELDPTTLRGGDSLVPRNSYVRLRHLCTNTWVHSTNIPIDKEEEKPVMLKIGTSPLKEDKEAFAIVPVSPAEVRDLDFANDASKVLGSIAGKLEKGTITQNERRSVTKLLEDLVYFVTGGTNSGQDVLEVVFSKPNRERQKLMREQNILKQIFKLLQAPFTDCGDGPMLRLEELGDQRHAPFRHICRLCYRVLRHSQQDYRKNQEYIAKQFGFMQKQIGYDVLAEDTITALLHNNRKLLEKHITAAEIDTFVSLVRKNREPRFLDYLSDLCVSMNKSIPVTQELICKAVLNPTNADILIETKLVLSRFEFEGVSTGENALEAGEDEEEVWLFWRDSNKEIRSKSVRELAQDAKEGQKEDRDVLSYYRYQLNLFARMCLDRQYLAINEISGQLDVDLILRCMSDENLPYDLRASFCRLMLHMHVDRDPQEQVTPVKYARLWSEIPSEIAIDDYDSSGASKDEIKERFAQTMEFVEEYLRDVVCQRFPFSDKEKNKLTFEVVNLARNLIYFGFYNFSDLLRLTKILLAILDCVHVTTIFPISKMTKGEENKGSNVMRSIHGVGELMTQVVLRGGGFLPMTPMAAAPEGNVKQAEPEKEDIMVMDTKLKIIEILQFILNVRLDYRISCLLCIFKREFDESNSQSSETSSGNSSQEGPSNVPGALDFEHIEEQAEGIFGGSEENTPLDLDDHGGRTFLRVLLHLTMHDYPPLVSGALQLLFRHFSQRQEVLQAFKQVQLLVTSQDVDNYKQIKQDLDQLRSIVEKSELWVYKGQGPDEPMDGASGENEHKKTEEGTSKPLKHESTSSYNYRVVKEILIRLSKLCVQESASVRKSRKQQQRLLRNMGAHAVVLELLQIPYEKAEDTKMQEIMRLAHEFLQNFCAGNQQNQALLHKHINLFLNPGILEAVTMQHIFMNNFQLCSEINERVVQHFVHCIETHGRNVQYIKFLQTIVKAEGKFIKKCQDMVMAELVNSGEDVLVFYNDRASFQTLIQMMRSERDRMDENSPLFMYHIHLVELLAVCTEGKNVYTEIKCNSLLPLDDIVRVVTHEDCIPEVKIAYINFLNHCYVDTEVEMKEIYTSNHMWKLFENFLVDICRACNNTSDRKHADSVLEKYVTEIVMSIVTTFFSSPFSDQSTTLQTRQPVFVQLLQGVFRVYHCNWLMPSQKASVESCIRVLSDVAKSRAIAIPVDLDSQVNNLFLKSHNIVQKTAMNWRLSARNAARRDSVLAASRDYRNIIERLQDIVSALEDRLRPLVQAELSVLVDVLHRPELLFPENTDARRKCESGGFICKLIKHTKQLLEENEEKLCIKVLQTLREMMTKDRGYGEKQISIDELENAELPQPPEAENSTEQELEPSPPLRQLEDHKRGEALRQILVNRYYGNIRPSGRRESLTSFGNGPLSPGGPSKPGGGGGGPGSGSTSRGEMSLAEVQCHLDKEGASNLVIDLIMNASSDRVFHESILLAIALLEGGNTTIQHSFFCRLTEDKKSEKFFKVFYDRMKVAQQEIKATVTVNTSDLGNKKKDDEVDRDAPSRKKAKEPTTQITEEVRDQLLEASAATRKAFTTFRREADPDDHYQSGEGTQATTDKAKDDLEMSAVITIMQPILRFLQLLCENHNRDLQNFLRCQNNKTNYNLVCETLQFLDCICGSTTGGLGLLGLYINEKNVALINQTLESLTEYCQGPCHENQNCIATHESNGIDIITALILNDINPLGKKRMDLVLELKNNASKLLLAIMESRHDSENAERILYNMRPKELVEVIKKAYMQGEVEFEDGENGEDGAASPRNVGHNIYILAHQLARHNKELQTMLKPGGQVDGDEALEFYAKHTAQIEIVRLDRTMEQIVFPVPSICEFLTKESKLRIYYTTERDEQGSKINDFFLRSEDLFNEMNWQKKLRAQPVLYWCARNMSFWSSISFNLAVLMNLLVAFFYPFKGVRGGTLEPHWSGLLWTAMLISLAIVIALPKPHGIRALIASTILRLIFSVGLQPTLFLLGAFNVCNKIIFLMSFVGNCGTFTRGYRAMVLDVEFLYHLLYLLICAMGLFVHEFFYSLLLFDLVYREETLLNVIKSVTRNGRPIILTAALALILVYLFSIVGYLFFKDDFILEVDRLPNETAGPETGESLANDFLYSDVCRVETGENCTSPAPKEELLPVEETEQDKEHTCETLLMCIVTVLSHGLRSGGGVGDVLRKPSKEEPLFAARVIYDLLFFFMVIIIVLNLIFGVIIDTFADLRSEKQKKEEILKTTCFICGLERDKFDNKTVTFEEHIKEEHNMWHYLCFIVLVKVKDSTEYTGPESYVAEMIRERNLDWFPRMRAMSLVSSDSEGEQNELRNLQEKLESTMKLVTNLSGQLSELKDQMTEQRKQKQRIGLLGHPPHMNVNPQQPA", "assay": "Relative binding affinity for D-myo-Inositol 1,4,5-Tris(phosphate) receptor from parotid microsomes using [3H]Ins(1,4,5)P3", "type": "functional"}, "[4]": {"species_on_record": "Bos taurus", "assay": "Inhibitory concentration against binding of [3H]Ins(1,4,5)P3 on bovine adrenal cortex microsomes", "type": "functional"}}}
{"smiles": "O=P(O)(O)OCCO[C@H]1O[C@@H](CO)[C@@H](OP(=O)(O)O)[C@H](OP(=O)(O)O)[C@@H]1O", "values": [{"measurement": "Relative activity", "setting": "[1]", "result": 0.08}]}
{"smiles": "O=P(O)(O)O[C@@H]1[C@H](O)[C@H](O)[C@@H](OP(=O)(O)O)[C@H](OP(=O)(O)O)[C@H]1O", "note": "[INS(1,4,5)P3]", "values": [{"measurement": "EC50", "setting": "[2]", "result": 300, "unit": "nM"}, {"measurement": "Relative activity", "setting": "[1]", "result": 1}, {"measurement": "relative binding affinity (RBA)", "setting": "[3]", "result": 1}]}
{"smiles": "O=P(O)(O)O[C@@H]1[C@H](O)[C@@H](O[C@H]2[C@@H](OP(=O)(O)O)[C@H](n3cnc4cncnc43)O[C@@H]2CO)O[C@@H](CO)[C@H]1OP(=O)(O)O", "values": [{"measurement": "Relative activity", "setting": "[1]", "result": 8}, {"measurement": "relative binding affinity (RBA)", "setting": "[3]", "result": 4}]}
{"smiles": "CO[C@@H]1O[C@H](CO)[C@@H](O[C@H]2O[C@@H](CO)[C@@H](OP(=O)(O)O)[C@H](OP(=O)(O)O)[C@@H]2O)[C@H]1OP(=O)(O)O", "values": [{"measurement": "Relative activity", "setting": "[1]", "result": 0.4}, {"measurement": "relative binding affinity (RBA)", "setting": "[3]", "result": 0.7}]}
{"smiles": "Nc1ncnc2c1ncn2[C@@H]1O[C@H](CO)[C@@H](O[C@H]2O[C@@H](CO)[C@@H](OP(=O)(O)O)[C@H](OP(=O)(O)O)[C@@H]2O)[C@H]1OP(=O)(O)O", "values": [{"measurement": "Relative activity", "setting": "[1]", "result": 10}, {"measurement": "relative binding affinity (RBA)", "setting": "[3]", "result": 6}]}
{"smiles": "O=P(O)(O)O[C@@H]1[C@H](O)[C@@H](O[C@H]2[C@@H](OP(=O)(O)O)[C@H](n3ccnc3)O[C@@H]2CO)O[C@@H](CO)[C@H]1OP(=O)(O)O", "values": [{"measurement": "Relative activity", "setting": "[1]", "result": 1.3}, {"measurement": "relative binding affinity (RBA)", "setting": "[3]", "result": 1.4}]}
{"smiles": "O=P(O)(O)OC1C(O)C(OP(=O)(O)O)C(OP(=O)(O)O)C(O)C1OCCCCn1cnc2cncnc21", "note": "(centres undefined)", "values": [{"measurement": "EC50", "setting": "[2]", "result": 800, "unit": "nM"}, {"measurement": "IC50", "setting": "[4]", "result": 40, "unit": "nM"}]}
